The values below come from patent US9145424B2, “Treatment of amyotrophic lateral sclerosis” (Northwestern University, priority 2008, dated 2015).

Each structure is given as a SMILES string.

A short description of data set [1]: In vitro microsomal stability, human. The format is in vitro ADME. The settings on record: Human. The procedure: (§1) Metabolism (microsome, S9 fraction, CYP450): Liver Cytochrome P450 (CYP450) enzymes are the major route for xenobiotic metabolism and microsomal and hepatocyte stability is the best predictor of pharmacokinetic half-life. Cross-species comparisons of metabolism in liver microsomes can predict potential issues with liver toxicity in humans. Selected active compounds are tested in liver microsomes from efficacy species (mouse), toxicity species (rat, dog, monkey), and humans for metabolic stability.
(§2) CMB-087229 was sent for an evaluation of its in vitro ADME properties.
(§3) Two possible amines, secondary and tertiary AAP analogues, were initially screened in the protection assay (FIG. 30) and for in vitro microsomal stability (Table 1) and Caco-2 permeability (Table 2). […] The solubilities of 2 and 3 were good in aqueous media (≧150 μM), and no precipitation occurred at the highest concentration. The in vitro plasma half-life for both compounds was >60 min.

The next data set has as its system cortical neurons. As to the kind of experiment: Cortical neuron assay. The format is cell-based. The settings on record: 10 μM. The procedure:
Selected compounds were tested with cortical neurons—a useful preliminary step prior to the expensive and time-consuming ALS mouse model studies. Although long linker compound 24 and cyclic linker compound 27 are active in the PC12 assay, they are not active with cortical neurons. Compound 3 gave better results than the ether counterpart (1), recovering 100% neuronal activity at 10 μM concentration.

Data set [2] can be described thus: In vitro plasma stability. It counts as in vitro ADME. The procedure:
Plasma stability: Plasma stability of active compounds is assessed in efficacy species (mouse), toxicity species (rat, dog, monkey), and human cells.

A short description of data set [3]: In vitro microsomal stability, mouse. To be noted: Mouse. The format is in vitro ADME. The procedure: as §1, §2, §3
A further data set can be described thus: Aqueous solubility. The format is physicochemical. To be noted: no precipitation at the highest concentration. The procedure:
Solubility: Because compounds are stored in DMSO, it is necessary to determine aqueous solubility of initial hit compounds and their analogs. High solubility in aqueous solution is necessary for high GI absorption, bioavailability, and for chemical formulation. Compounds should be soluble in aqueous solution at >10 μg/ml. Solubility of >50 μg/ml is preferred.

For the next data set, the system named is Caco-2. As to the kind of experiment: In vitro Caco-2 permeability. The format is in vitro ADME. The procedure:
General Permeability: High membrane permeability is required for effective GI absorption and optimal bioavailability. Passive permeability is typically assessed in the PAMPA artificial membrane assay (Kansy et al., J. Med. Chem. 2002, 45(8), 1712-1722). Cell-based permeability determinations using the Caco-2 cell assay are more resource intensive but more predictive of active transport or efflux in vivo (Artursson et al., Adv. Drug. Deliv. Rev. 2001, 46(1-3), 27-43). Caco-2 assays are performed as needed during SAR development.
For orientation: Passage across Caco-2 layers is used to estimate intestinal permeability.

As for `CN(Cc1cc(=O)[nH][nH]1)c1cc(Cl)cc(Cl)c1` [Compound 3, 5-(((3,5-Dichlorophenyl)(methyl)amino)methyl)-1H-pyrazol-3(2H)-one], the T1/2 is over 3 h in data set [1] (NADPH-absent), over 3 h in data set [1] (NADPH-dependent), over 3 h in data set [3] (NADPH-absent) and 0.417 h in data set [3] (NADPH-dependent). The compound further returned a neuronal activity recovered in the data set with cortical neurons of 100%. For the same compound, in data set [2], the “in vitro plasma half-life” value was over 1 h. Also, the microsomal CLint in data set [3] (mouse, liver microsomes, NADPH-dependent, read-out: CLint (microsomal intrinsic clearance)) came out at 93 µL/min/mg. Further, in “Aqueous solubility”, the “solubility in aqueous media” value was at least 150 µM. Moreover, the “Efflux ratio (B→A)/(A→B)” value in the data set with Caco-2 is reported as 3.5. In the data set with Caco-2, the “Papp (A→B)” value is listed as 2.2 10^−6 cm/s. Also, the “Papp (B→A)” value in the data set with Caco-2 is 7.6 10^−6 cm/s.

Broadly, the microsomal CLint is the capacity of the preparation to metabolise the compound, expressed as a volume cleared per time.
